Results from US8835377B2, “Oral delivery of peptide pharmaceutical compositions” (UGP Therapeutics, Inc., priority 2004, dated 2014).

Test: Pharmacokinetics after duodenal injection of unformulated or formulated Dmt-DALDA in anesthetized rats (plasma, HPLC-UV)
Type: in vivo
Conditions: rats, formulated solution containing citric acid and lauroyl carnitine
Experimental: In the experiments represented in the subject Figure, six anesthetized rats (which were color-coded as: red, white, blue, orange, green and yellow) were given 0.7 mL Dmt-DALDA (1.6 mg/mL) with a syringe through a 27 gauge needle into the duodenum. This injection procedure was followed due to the technical difficulty inherent in preparing capsules which can be swallowed by small animals the size of a rat. The intraduodanal injection, therefore, mimics the release of the components of an enteric-coated capsule formulation which would pass through the esophagus and stomach and release its contents in the duodenum. Three of the rats (red, white and blue) were given Unformulated Dmt-DALDA in which there were no additional components (i.e., other than the Dmt-DALDA), while the other three rats (orange, green and yellow) were given Formulated Dmt-DALDA which included, in addition to the Dmt-DALDA, 0.5M citric acid and lauroyl carnitine (10 mg/ml). Samples of blood were taken from the carotid artery through an indwelling catheter before and 5, 15, 30, 60 and 120 minutes after the administration of the respective formulations (i.e., Formulated and Unformulated). The blood samples were centrifuged and the resulting plasma supernatants were stored frozen at −20° C. […] Peptide was detected with an ultraviolet (UV) detector set at a wavelength of 210 nm. […] Table I, moreover, provides the standard deviations for the data obtained regarding each of the test rats, which standard deviations are also indicated in FIG. 1.
Table II (below) summarizes the pharmacokinetic parameters in rats of orally administered unformulated and formulated Dmt-DALDA as those terms are defined above. Cmax refers to the maximum concentration of peptide detected in the rat plasma. The area under the curve (AUC) is a measure of the extent of peptide absorption and is calculated by the trapezoidal rule from a plot of peptide concentration as a function of time. Tmax indicates when the maximum concentration of the Dmt-DALDA in the blood serum was obtained.

Compound: Cc1cc(O)cc(C)c1C[C@H](N)C(=O)N[C@H](CCCNC(=N)N)C(=O)N[C@@H](Cc1ccccc1)C(=O)N[C@@H](CCCCN)C(N)=O [Dmt-DALDA, H-2,6-dimethyltyrosine-D-Arginine-Phenylalanine-Lysine-NH2]
- Cmax and AUC, formulated solution vs unformulated: significantly enhanced
